{
  "source": "paper PMC7497679",
  "about": "“Structure-based design, synthesis, and evaluation of the biological activity of novel phosphoroorganic small molecule IAP antagonists” (Investigational New Drugs, 2020)",
  "target": "T1, cIAP1 (Homo sapiens, UniProt Q13490)",
  "T1 construct": "induce autoubiquitination and degradation of cIAP1 in MDA-MB-231 breast cancer cells; endogenous in cells; host or cells: MDA-MB-231",
  "T1 sequence (Q13490 whole entry)": "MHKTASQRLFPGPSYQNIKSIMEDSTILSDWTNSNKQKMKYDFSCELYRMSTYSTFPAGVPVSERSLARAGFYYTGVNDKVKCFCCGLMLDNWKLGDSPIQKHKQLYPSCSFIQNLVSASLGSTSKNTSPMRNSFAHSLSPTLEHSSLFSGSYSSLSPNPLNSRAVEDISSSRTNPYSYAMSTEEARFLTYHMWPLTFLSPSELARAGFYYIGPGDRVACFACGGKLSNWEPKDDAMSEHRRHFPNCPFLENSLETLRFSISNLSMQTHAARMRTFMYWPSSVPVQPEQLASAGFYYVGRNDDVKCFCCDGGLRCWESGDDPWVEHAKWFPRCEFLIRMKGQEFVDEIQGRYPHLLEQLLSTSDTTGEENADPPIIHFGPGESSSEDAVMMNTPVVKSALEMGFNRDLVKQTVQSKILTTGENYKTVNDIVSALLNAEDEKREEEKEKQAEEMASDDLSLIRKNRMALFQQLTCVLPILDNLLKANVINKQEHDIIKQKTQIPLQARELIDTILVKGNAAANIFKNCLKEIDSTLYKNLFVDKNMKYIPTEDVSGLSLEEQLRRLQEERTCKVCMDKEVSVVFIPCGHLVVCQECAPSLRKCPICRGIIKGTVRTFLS",
  "assay": "Western blot analysis of cIAP1 autoubiquitination and proteasomal degradation in MDA-MB-231 cells",
  "assay_type": "cell-based",
  "details": "10 µM, 15 and 120 min",
  "protocol": "Prior to Western blot sample collection, cells were harvested by trypsinization, counted and seeded on 50 mm Petri dishes. After overnight incubation, the culture medium was replaced with fresh medium containing the tested compounds at the target concentration ranges with 0.1% (v/v) DMSO as a control. Next, the cells were washed with PBS and lysed with ice-cold RIPA buffer containing protease and phosphatase inhibitors (Sigma-Aldrich, Poznań, Poland), and after debris removal (4 °C, 15 min, 16,000 × g), the lysates were used in further experiments.\nMDA-MB-231 cell lysates (25 µg of total protein/lane) were resolved by SDS-PAGE (4–12%, Tris-glycine, reducing conditions) and transferred onto a nitrocellulose membrane (0.45 µm pore size; Thermo Scientific, Gdańsk, Poland) using the semi-dry blotting system (Cleaver Scientific, Rugby, UK). The membrane was washed with 10 mM PBS (pH 7.4; 5 min, r.t.) and blocked with 5% skim milk in PBS supplemented with 0.05% Tween-20 (PBST) for 1 h at r.t. Subsequently, the membrane was washed with PBST (3 times for 5 min, r.t.) and incubated with rabbit anti-cIAP1 monoclonal IgG (1:1,000 in 0.5% skim milk in PBST; 4 °C, overnight; Cell Signaling Technology, Warszawa, Poland, Cat# 7065, D5G9). […]",
  "data": [
    {"smiles": "CN[C@@H](C)C(=O)N[C@H](C(=O)N1CCC[C@H]1C(=O)NC(Cc1ccccc1)P(=O)(Oc1ccccc1)Oc1ccccc1)C(C)C", "note": "(stereo partly drawn) [Compound 41, diphenyl (1-((S)-1-((S)-3-methyl-2-((S)-2-(methylamino)propanamido)butanoyl)pyrrolidine-2-carboxamido)-2-phenylethyl)phosphonate]", "values": [
      {"measurement": "induction of autoubiquitination and degradation of cIAP1", "result": "greatest ability to induce cIAP1 degradation"}
    ]},
    {"smiles": "CN[C@@H](C)C(=O)N[C@H](C(=O)N1CCC[C@H]1C(=O)NC(Cc1ccccc1)P(=O)(Oc1ccccc1)Oc1ccccc1)C1CCCCC1", "note": "(stereo partly drawn) [Compound 42, diphenyl (1-((S)-1-((S)-2-cyclohexyl-2-((S)-2-(methylamino)propanamido)acetyl)pyrrolidine-2-carboxamido)-2-phenylethyl)phosphonate]", "values": [
      {"measurement": "induction of autoubiquitination and degradation of cIAP1", "result": "greatest ability to induce cIAP1 degradation"}
    ]}
  ]
}
